Activity calls are given as the source filed them. No cut-off for these calls is given here.
Experiments:
MCF7 = assay: Antiproliferative activity against human MCF7 cells assessed as reduction in cell viability incubated for 48 hrs by MTT assay; assay type: functional, cell-based; settings: MCF7, 48 h
HCT-116 = assay: Antiproliferative activity against human HCT-116 cells assessed as reduction in cell viability incubated for 48 hrs by MTT assay; assay type: functional, cell-based; settings: HCT-116, 48 h
SH-SY5Y [1] = assay: Antiproliferative activity against human SH-SY5Y cells assessed as reduction in cell viability incubated for 48 hrs by MTT assay; assay type: functional, cell-based
SH-SY5Y [2] = assay: Induction of cell cycle arrest in human SH-SY5Y cells assessed as accumulation of cells at G1/G0 phase at 5 uM incubated for 48 hrs by LSRFortessa cell analyzer (reference value: 50.1%); assay type: functional
SH-SY5Y [3] = assay: Induction of cell cycle arrest in human SH-SY5Y cells assessed as accumulation of cells at S phase at 5 uM incubated for 48 hrs by LSRFortessa cell analyzer (reference value: 16.2%); assay type: functional
SH-SY5Y [4] = assay: Induction of cell cycle arrest in human SH-SY5Y cells assessed as accumulation of cells at G2/M phase at 5 uM incubated for 48 hrs by LSRFortessa cell analyzer (reference value: 28.4%); assay type: functional
SH-SY5Y [5] = assay: Induction of apoptosis in human SH-SY5Y cells assessed as viable cells at 5 uM incubated for 48 hrs by Annexin V-FITC/PI staining based flow cytometry analysis (reference value: 91.3%); assay type: functional; settings: read-out: Activity
SH-SY5Y [6] = assay: Induction of apoptosis in human SH-SY5Y cells assessed as early apoptotic cells at 5 uM incubated for 48 hrs by Annexin V-FITC/PI staining based flow cytometry analysis (reference value: 2.0%); assay type: functional
SH-SY5Y [7] = assay: Induction of apoptosis in human SH-SY5Y cells assessed as late apoptotic cells at 5 uM incubated for 48 hrs by Annexin V-FITC/PI staining based flow cytometry analysis (reference value: 3.0%); assay type: functional
SH-SY5Y [8] = assay: Induction of apoptosis in human SH-SY5Y cells assessed as necrotic cells at 5 uM incubated for 48 hrs by Annexin V-FITC/PI staining based flow cytometry analysis (reference value: 0.7%); assay type: functional
HEK-293T = assay: Cytotoxicity against human HEK293T cells at 25 uM incubated for 48 hrs by MTT assay; assay type: toxicity, cell-based
SH-SY5Y [9] = assay: Induction of mitochondrial membrane potential in human SH-SY5Y cells assessed as mitochondria depolarization at 5 uM incubated for 48 hrs by synergy H1 microplate reader analysis; assay type: functional, cell-based
Tubulin (Homo sapiens) [10] = biological target: T1, Tubulin (Homo sapiens) (UniProt P68371+Q9H4B7+P0DPH7+P68366+Q13509+Q71U36+P04350+Q3ZCM7+P07437+P68363+Q9BQE3+Q6PEY2+Q13885+Q9BVA1+Q9BUF5); assay: Inhibition of tubulin polymerization (unknown origin) at 5 uM incubated for 60 mins measured every 1 mins by spectrophotometric analysis; assay type: protein-complex assay
Tubulin (Homo sapiens) [11] = biological target: T1, Tubulin (Homo sapiens); assay: Inhibition of tubulin polymerization (unknown origin) at 1 uM incubated for 60 mins measured every 1 mins by spectrophotometric analysis; assay type: protein-complex assay

SMILES	IC50 (MCF7) [µM]	IC50 (HCT-116) [µM]	IC50 (SH-SY5Y [1]) [µM]	inhibition (Tubulin (Homo sapiens) [10])	inhibition (Tubulin (Homo sapiens) [11])	Activity (SH-SY5Y [2]) [%]	Activity (SH-SY5Y [3]) [%]	Activity (SH-SY5Y [4]) [%]	viability at 5 µM (SH-SY5Y [5]) [%]	Activity (SH-SY5Y [6]) [%]	Activity (SH-SY5Y [7]) [%]	Activity (SH-SY5Y [8]) [%]	Activity (HEK-293T)	Activity (SH-SY5Y [9])
CN1CCN(c2nc(N3CCN(C)CC3)c3ccccc3n2)CC1	> 25	20.7	23.8	–	–	–	–	–	–	–	–	–	–	–
c1ccc(CN2CCN(c3nc(N4CCN(Cc5ccccc5)CC4)c4ccccc4n3)CC2)cc1	21.8	> 25	> 25	–	–	–	–	–	–	–	–	–	–	–
c1ccc2c(-n3ccnc3)nc(-n3ccnc3)nc2c1	11.5	9.43	15.7	–	–	–	–	–	–	–	–	–	–	–
c1ccc2c(-n3nnc4ccccc43)nc(-n3nnc4ccccc43)nc2c1	15.3	> 25	11	–	–	–	–	–	–	–	–	–	–	–
COc1cc2c(c(OC)c1OC)-c1ccc(OC)c(=O)cc1[C@@H](NC(C)=O)CC2 [COLCHICINE]	4.48	1.65	6.82	–	–	5.1	4.1	90	35.1	6.5	54.5	3.9	–	–
COc1cc2c(N3CCN(C)CC3)nc(N3CCN(C)CC3)nc2c(OC)c1OC	24.1	21.3	> 25	–	–	–	–	–	–	–	–	–	–	–
c1ccc2c(N3CCOCC3)nc(N3CCOCC3)nc2c1	14.6	> 25	18.9	–	–	–	–	–	–	–	–	–	–	–
c1ccc(N2CCN(c3nc(N4CCN(c5ccccc5)CC4)c4ccccc4n3)CC2)cc1	12.8	9.19	> 25	–	–	–	–	–	–	–	–	–	–	–

Second part, led by results:

IC50 (MCF7) [µM]	IC50 (HCT-116) [µM]	IC50 (SH-SY5Y [1]) [µM]	inhibition (Tubulin (Homo sapiens) [10])	inhibition (Tubulin (Homo sapiens) [11])	SMILES	Activity (SH-SY5Y [2]) [%]	Activity (SH-SY5Y [3]) [%]	Activity (SH-SY5Y [4]) [%]	viability at 5 µM (SH-SY5Y [5]) [%]	Activity (SH-SY5Y [6]) [%]	Activity (SH-SY5Y [7]) [%]	Activity (SH-SY5Y [8]) [%]	Activity (HEK-293T)	Activity (SH-SY5Y [9])
23.1	13.8	> 25	–	–	COc1cc2c(-n3cnnc3)nc(-n3cnnc3)nc2c(OC)c1OC	–	–	–	–	–	–	–	–	–
18.8	> 25	15.9	–	–	COc1cc2c(N3CCOCC3)nc(N3CCOCC3)nc2c(OC)c1OC	–	–	–	–	–	–	–	–	–
3.45	7.25	8.14	–	–	COc1cc2c(-n3nnc4ccccc43)nc(-n3nnc4ccccc43)nc2c(OC)c1OC	78.9	7.7	8.4	35.9	10.3	51.8	2	Non-toxic	inactive
19	17.5	15.3	–	–	c1ccc2c(-n3cnnc3)nc(-n3cnnc3)nc2c1	–	–	–	–	–	–	–	–	–
4.25	2.65	9.91	Active	inactive	COc1cc2c(-n3ccnc3)nc(-n3ccnc3)nc2c(OC)c1OC	11.3	6.8	79	33.3	9.6	50.3	6.8	Non-toxic	Active

— ChEMBL document CHEMBL6177929, “Synthesis and screening of novel 2,4-bis substituted quinazolines as tubulin polymerization promoters and antiproliferative agents” (RSC Med Chem, 2025)
